What was measured:
primary human T-cells [1] = experiment: T-cell proliferation assay (CellTiter-Glo); type: cell-based; conditions: CD3 condition; for Emax proliferation (% activation): 5 days, 20 μM reference compound A1 = 100%; for EC50: Homo sapiens, T-cell, 120 h, proliferation after 5 days, CellTiter-Glo, read-out: Tcell Proliferation CD3 EC50
Description: For coating of plates, PBS++ only or PBS++ with CD3 antibody (concentration depending on donor and determined by CD3 titrations) is added 100 μl/well to Poly-D Lysine coated 96-well plates. Plates are sealed and incubated at room temperature for 3 hours on a table-top rocking platform. After incubation, plates are washed once with PBS−− and filled with 40 μl/well culture medium only. Compounds are then added (see next section) to medium only plates. After 3 hours of culturing the T-cells, cells are filtered through a cell strainer (Miltenyi Biotech, #130-041-407), counted again and concentration is adjusted to 1.25 Mio/ml.
Cells are then seeded 80 μl/well to the 40 μl/well including dispensed compounds according to plate layout. By adding cells, compounds are further diluted 1:3, and resulting in 100 k cells/120 μl/well. After 48 hours 40 μl of supernatant is collected carefully from the top while not disturbing the cells. Cells are assessed for proliferation 5 days later by measuring […] using CellTiterGlo (Promega).
Compounds were added in a 5 or 6 pt dose response with the Tecan D300e Digital Dispenser, all conditions 3 times more concentrated than the end-concentration, since cells are added afterwards (80 μl cells to 40 μl prepared medium with treatment). […] The positive control was the reference compound A1 that was added in a dose response as well, additionally to 3 wells of only 20 μM representing the positive stimulator control. All wells were normalized with DMSO to a final concentration of 0.6% (0.2% end-concentration).
After 5 days, for detection of ATP which is directly proportional to the number of cells present per well, the CellTiter-Glo® 2.0 Reagent is used. After visual control for toxicity or precipitations of the tested compounds, the plates are equilibrated to room temperature for 45 minutes. CellTiter-Glo® 2.0 Reagent is equilibrated to room temperature as well. After equilibration, an equal amount of CellTiter-Glo reagent is added to the cells (80 μl/well) with an electronic multichannel pipette. Plates are placed on a rocking platform for 15 minutes at room temperature. After incubation, the bottom of the plates is sealed with backing tape. Luminescence is measured with PHERAstar FSX (interval time 0.5 sec, gain 3000, focal height 15 mm) and exported as CSV file for analysis in Genedata screener.
Calculations and Data Reporting CD3 and PBS plates were analysed separately in Genedata Screener using Roche Normalization PCT_POS_CTRL with DMSO set as Neutral Control and 20 μM of the reference compound A1 set as Stimulator Control/100%.
For CD3 conditions EC50 and Emax of the fitted sigmoidal curve were reported. If no curve could be fitted, the EC50 was reported as blank field and the Emax was based on individual data points. […] Compounds which activate unstimulated cells (see IL2 measurements) or compounds which negatively affected viability were flagged.

[2] = molecular target: DGKalpha (hDGKalpha(1-735)-N-His) (Homo sapiens (Human), UniProt P23743); experiment: In vitro DGK inhibition assay, ADP-Glo (in house), DGKalpha; type: biochemical; conditions: DLG liposomes, 25 μM ATP, 4 nM enzyme, 1 hour reaction
Description: (§1) DGK α and ζ kinases use ATP to phosphorylate the substrate 1,2-dilauroyl-sn-glycerol (DLG, incorporated in the liposomes). ATP is converted to ADP as a result of this enzymatic reaction.
(§2) After the kinase reaction, an ATP-depletion reagent is added to terminate the kinase reaction and deplete any remaining ATP, leaving only ADP. Second, a detection reagent is added to simultaneously convert ADP to ATP and allow the newly synthesized ATP to be converted to light using a coupled luciferase/luciferin reaction.
(§3) Purification of both enzymes was performed as previously described by Takahashi et al., PeerJ, 2018 (Takahashi, D.; Sakane, F. Expression and purification of human diacylglycerol kinase alpha from baculovirus-infected insect cells for structural studies. PeerJ 2018, 6, No. e5449).
(§4) A concentrated liposome solution was prepared in assay buffer without DTT and BSA: 2 mM of DLG in 21 mM of total liposome (2 mM DLG/8 mM PS/11 mM PC). The reaction mixtures contain the assay buffer with a final DLG concentration of 125 uM ATP concentrations of 25 μM (for DGKA assay) or 50 μM (for DGKZ assay). The reactions were started by addition of DGK α and ζ kinases at 4 nM and 2 nM final concentrations, respectively. After 1 hour reaction, the amount of ADP formed was detected with the ADP-Glo kinase assay (Promega) according to the manufacturer instructions. Compounds were added in 11-points dose response, starting at […], 1:3 dilutions, with a final DMSO concentration of 2%. The multidrop combi was used as a liquid handler and luminescence was read with 0.5 s by the envision reader (PE).

primary human T-cells [3] = experiment: IL2 secretion measurements in CD3-stimulated T-cells; type: cell-based; conditions: CD3 condition; for Emax IL2 (% activation): 24 hours, 20 μM reference compound A1 = 100%; for EC50: Homo sapiens, T-cell, IL2 secretion after 24 hours, read-out: Tcell IL2 CD3 EC50
Description: As readouts for T-cell activation, 1L2 secretion after 24 hours and proliferation after 5 days was measured. Increases in 1L2 secretion and proliferation upon compound treatment were assessed as the % of the maximum of reference compound A1. WO 2016/139181 discloses reference compound A1 as example 70. As a counter screen and to make sure that no unwanted TCR-independent activation was triggered, PBS conditions were run for all compounds.
Expanded primary human T-cells were thawed and cultured in RPMI 1640 (Gibco, #61870-010)+5% human serum (HS, Sigma, #H3667)+1 mM Sodium Pyruvate (Gibco, #11360-039)+50 μM 2-mercaptoethanol (Gibco, #31350-010) and 1× Pen-Strep (Life Technologies, #15140122) medium at density of 2 Mio/ml for 3 hours in 5% CO2, 37° C. and 95% humidity. For coating of plates, […] or PBS++ with CD3 antibody (concentration depending on donor and determined by CD3 titrations) was added 100 μl/well to Poly-D Lysine coated 96-well plates. Plates were sealed and incubated at room temperature for 3 hours on a table-top rocking platform. After incubation, plates were washed once with PBS−− and filled with 40 μl/well culture medium only. Compounds were then added (see next section) to medium only plates. After 3 hours of culturing the T-cells, cells were filtered through a cell strainer (Miltenyi Biotech, #130-041-407), counted again and concentration was adjusted to 1.25 Mio/ml.
Cells were then seeded 80 μl/well to the 40 μl/well including dispensed compounds according to plate layout. By adding cells, compounds were further diluted 1:3, and resulting in 100 k cells/120 μl/well. After 24 hours 40 μl of supernatant was collected carefully from the top while not disturbing the cells and transferred into a round bottom 96 well plate. Collected and frozen supernatant was used for detection of IL2 using the IL-2 Human ProQuantum Immunoassay Kit (Invitrogen) or using the Human IL-2 ELISA Kit (Thermo Fisher).
Compounds were added in a 5 or 6 pt dose response with the Tecan D300e Digital Dispenser, all conditions 3 times more concentrated than the end-concentration, since cells are added afterwards (80 μl cells to 40 μl prepared medium with treatment). The DR was starting at 20 μM or 10 μM final top concentration and a dilution factor of 3.333. The positive control was the reference compound A1 that was added in a dose response as well, additionally to 3 wells of only 20 μM representing the positive stimulator control. All wells were normalized with DMSO to a final concentration of 0.6% (0.2% end-concentration).
The immunoassay is done following the manufacturer's manual (Invitrogen, #A35603). Additional information: For the immunoassay, MicroAmp™ EnduraPlate™ Optical 384-Well plates are used. Frozen supernatant is thawed and centrifuged for 5 minutes at 1000×g, both steps at 4° C. After centrifugation, required sample amount is taken from the top, and in a separate LightCycler V-bottom plate (working plate) diluted with assay dilution buffer, dilution factor depending on the PBS or CD3 condition but at least 1:3. IL-2 standard and blanks are prepared in the same V-bottom plate, standard with a range of […] (extended version). After preparation, 5 μl of sample dilutions or standard/blanks are transferred to the optical 384-well plate (assay plate) and the 10 μl reaction protocol is being followed. For measurement, the QuantStudio 12K Flex system is used. Raw data is extracted and IL-2 concentrations are calculated with the Thermo Fisher online app (apps.thermofisher.com/apps/proquantum).
ELISA is done following the manufacturer's manual (Thermo Fisher Scientific, #88-7025-88). Additional information: For the ELISA Nunc MaxiSorp 96 well plates are used. Frozen supernatant is thawed and centrifuged for 5 minutes at 1000×g, both steps at 4° C. […]

[4] = molecular target: DGKzeta (hDGKzeta(1-928)-N-His) (Homo sapiens (Human), UniProt Q13574); experiment: In vitro DGK inhibition assay, ADP-Glo (in house), DGKzeta; type: biochemical; conditions: DLG liposomes, 50 μM ATP, 2 nM enzyme, 1 hour reaction
Description: as §1, §2, §3, §4

Sequence of DGKzeta (hDGKzeta(1-928)-N-His) (Q13574 whole entry): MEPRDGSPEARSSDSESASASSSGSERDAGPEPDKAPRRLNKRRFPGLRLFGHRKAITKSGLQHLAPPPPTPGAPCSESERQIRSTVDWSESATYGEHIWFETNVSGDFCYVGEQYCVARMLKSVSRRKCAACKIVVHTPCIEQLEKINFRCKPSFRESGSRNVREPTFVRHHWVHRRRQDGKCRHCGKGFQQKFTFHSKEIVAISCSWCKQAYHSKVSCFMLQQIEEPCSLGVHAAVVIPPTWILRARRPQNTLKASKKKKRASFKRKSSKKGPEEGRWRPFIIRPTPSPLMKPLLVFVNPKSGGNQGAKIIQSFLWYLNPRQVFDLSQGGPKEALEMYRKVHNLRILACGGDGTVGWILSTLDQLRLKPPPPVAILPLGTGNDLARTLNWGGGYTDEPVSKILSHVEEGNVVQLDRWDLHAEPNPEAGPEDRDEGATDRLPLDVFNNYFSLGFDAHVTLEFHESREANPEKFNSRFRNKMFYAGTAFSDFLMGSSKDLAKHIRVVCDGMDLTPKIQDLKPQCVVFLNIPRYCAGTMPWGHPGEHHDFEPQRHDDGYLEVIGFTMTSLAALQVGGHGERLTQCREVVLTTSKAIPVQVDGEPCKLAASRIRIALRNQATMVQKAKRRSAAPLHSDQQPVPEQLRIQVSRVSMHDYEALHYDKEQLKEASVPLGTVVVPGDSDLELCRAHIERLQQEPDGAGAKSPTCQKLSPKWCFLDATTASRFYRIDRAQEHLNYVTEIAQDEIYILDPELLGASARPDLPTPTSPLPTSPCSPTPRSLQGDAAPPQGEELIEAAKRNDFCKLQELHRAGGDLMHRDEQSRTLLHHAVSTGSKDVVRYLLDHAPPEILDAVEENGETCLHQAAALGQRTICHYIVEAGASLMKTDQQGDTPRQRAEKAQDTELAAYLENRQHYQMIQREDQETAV
Sequence of DGKalpha (hDGKalpha(1-735)-N-His) (P23743 whole entry): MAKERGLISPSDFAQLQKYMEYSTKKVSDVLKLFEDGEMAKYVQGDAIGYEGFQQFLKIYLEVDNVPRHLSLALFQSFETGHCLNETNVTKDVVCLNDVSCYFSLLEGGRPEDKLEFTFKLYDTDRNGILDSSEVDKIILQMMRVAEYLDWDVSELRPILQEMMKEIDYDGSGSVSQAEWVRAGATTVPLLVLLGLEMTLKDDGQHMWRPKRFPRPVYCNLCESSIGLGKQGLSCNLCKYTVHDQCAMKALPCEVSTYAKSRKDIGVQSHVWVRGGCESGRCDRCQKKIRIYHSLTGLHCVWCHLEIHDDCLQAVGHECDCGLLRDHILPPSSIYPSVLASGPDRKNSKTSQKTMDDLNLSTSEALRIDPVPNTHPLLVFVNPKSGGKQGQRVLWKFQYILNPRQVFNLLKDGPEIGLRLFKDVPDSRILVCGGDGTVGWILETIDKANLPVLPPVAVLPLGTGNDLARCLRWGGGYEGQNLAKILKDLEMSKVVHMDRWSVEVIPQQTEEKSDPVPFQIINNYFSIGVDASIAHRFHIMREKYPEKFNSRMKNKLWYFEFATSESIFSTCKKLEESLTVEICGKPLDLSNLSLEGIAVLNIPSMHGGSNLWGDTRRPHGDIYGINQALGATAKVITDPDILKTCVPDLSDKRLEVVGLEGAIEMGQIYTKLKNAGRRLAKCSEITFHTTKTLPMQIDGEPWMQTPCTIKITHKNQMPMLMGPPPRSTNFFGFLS

Row | SMILES | Emax proliferation (% activation) (primary human T-cells [1]) | EC50 (primary human T-cells [1]) [µM] | IC50 [2] [µM] | Emax IL2 (% activation) (primary human T-cells [3]) | EC50 (primary human T-cells [3]) [µM] | IC50 [4] [µM]
1 | CC(C)(C)c1nncc(-c2cc3c(cc2F)S(=O)(=O)C[C@H](N)C(=O)N3Cc2ccc(-c3noc(C(F)(F)F)n3)cc2)n1 [Example 36, (3R)-3-amino-8-fluoro-1,1-dioxo-7(3R)-3-amino-7-(3-tert-butyl-1,2,4-triazin-5-yl)-8-fluoro-1,1-dioxo-5-[[4-[5-(trifluoromethyl)-1,2,4-oxadiazol-3-yl]phenyl]methyl]-2,3-dihydro-1λ6,5-benzothiazepin-4-one] | 108 | 1.35 | 24.5 | 88 | 1.56 | 1.5
2 | COC(=O)N1CC2CC(c3cnnc(-c4cc5c(cc4F)S(=O)(=O)C[C@H](N)C(=O)N5Cc4ccc(Cl)cc4)n3)(C2)C1 [Example 18, methyl 1-[3-[(3R)-3-amino-5-[(4-chlorophenyl)methyl]-8-fluoro-1,1,4-trioxo-2,3-dihydro-1λ6,5-benzothiazepin-7-yl]-1,2,4-triazin-5-yl]-3-azabicyclo[3.1.1]heptane-3-carboxylate] | 79 | 2.72 | 4.59 | 61 | 1.83 | 1.13
3 | N[C@H]1CS(=O)(=O)c2cc(F)c(-c3nncc(N4CCC(F)(F)CC4)n3)cc2N(Cc2ccc(Cl)cc2)C1=O [Example 17, (3R)-3-amino-5-[(4-chlorophenyl)methyl]-7-[5-(4,4-difluoro-1-piperidyl)-1,2,4-triazin-3-yl]-8-fluoro-1,1-dioxo-2,3-dihydro-1λ6,5-benzothiazepin-4-one] | 104 | 0.342 | 7.88 | 62 | 0.449 | 0.65
4 | CS(=O)(=O)C(CCCl)c1cnnc(-c2cc3c(cc2F)S(=O)(=O)C[C@H](N)C(=O)N3Cc2ccc(Cl)cc2)n1 (stereo partly drawn) [Example 20, (3R)-3-amino-7-[5-(3-chloro-1-methylsulfonyl-propyl)-1,2,4-triazin-3-yl]-5-[(4-chlorophenyl)methyl]-8-fluoro-1,1-dioxo-2,3-dihydro-1λ6,5-benzothiazepin-4-one] | 87 | 9.11 | 1.66 | 39 | > 10 | 1.73
5 | COc1ccc(-c2ccc(CN3C(=O)[C@@H](N)CS(=O)(=O)c4cc(F)c(-c5cncc(Cl)c5)cc43)cc2)cc1 [Example 27, (3R)-3-amino-7-(5-chloro-3-pyridyl)-8-fluoro-5-[[4-(4-methoxyphenyl)phenyl]methyl]-1,1-dioxo-2,3-dihydro-1λ6,5-benzothiazepin-4-one] | 111 | 0.308 | 41.2 | 243 | 0.997 | 6.5
6 | CC(C)(C)c1cc(-c2cc3c(cc2F)S(=O)(=O)C[C@H](N)C(=O)N3Cc2ccc(Cl)cc2)cnn1 [Example 31, (3R)-3-amino-7-(6-tert-butylpyridazin-4-yl)-5-[(4-chlorophenyl)methyl]-8-fluoro-1,1-dioxo-2,3-dihydro-1λ6,5-benzothiazepin-4-one] | 112 | 0.501 | 35.2 | 80 | 1.09 | 3.85
7 | CC(C)(C)c1cc(-c2cc3c(cc2F)S(=O)(=O)C[C@H](N)C(=O)N3Cc2ccc(-c3noc(C(F)(F)F)n3)cc2)cnn1 [Example 34, (3R)-3-amino-7-(6-tert-butylpyridazin-4-yl)-8-fluoro-1,1-dioxo-5-[[4-[5-(trifluoromethyl)-1,2,4-oxadiazol-3-yl]phenyl]methyl]-2,3-dihydro-1λ6,5-benzothiazepin-4-one] | 127 | 0.361 | 13.4 | 96 | 1.4 | 7.56

Reference: US20250236617A1, “BICYCLIC TETRAHYDROTHIAZEPINE DERIVATIVES” (Hoffmann-La Roche Inc., priority 2022, published 2025)
